A value given as a limit tells only on which side of the number the result lay.

The target of the experiment is MALT1 (Homo sapiens (Human), UniProt Q9UDY8). The experiment can be described thus: MALT1 enzymatic activity inhibition (fluorescence, Ac-LRSR-AMC substrate). In kind it is biochemical. The following applies: recombinant MALT1 1.5 ng/μl, Ac-LRSR-AMC 1 μM. Put shortly: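 Recombinant human MALT1 (1.5 ng/μl final) preincubated 10 min at rt with compounds in 50 mM HEPES pH 7.2-7.4, 100 mM NaCl, 900 mM sodium citrate, 10 mM DTT; 1 μM Ac-LRSR-AMC then added. AMC fluorescence read at start and after 30 min 37 °C plus 30 min rt; difference gives signal, % inhibition fitted to IC50.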
Sequence of MALT1 (Q9UDY8 whole entry): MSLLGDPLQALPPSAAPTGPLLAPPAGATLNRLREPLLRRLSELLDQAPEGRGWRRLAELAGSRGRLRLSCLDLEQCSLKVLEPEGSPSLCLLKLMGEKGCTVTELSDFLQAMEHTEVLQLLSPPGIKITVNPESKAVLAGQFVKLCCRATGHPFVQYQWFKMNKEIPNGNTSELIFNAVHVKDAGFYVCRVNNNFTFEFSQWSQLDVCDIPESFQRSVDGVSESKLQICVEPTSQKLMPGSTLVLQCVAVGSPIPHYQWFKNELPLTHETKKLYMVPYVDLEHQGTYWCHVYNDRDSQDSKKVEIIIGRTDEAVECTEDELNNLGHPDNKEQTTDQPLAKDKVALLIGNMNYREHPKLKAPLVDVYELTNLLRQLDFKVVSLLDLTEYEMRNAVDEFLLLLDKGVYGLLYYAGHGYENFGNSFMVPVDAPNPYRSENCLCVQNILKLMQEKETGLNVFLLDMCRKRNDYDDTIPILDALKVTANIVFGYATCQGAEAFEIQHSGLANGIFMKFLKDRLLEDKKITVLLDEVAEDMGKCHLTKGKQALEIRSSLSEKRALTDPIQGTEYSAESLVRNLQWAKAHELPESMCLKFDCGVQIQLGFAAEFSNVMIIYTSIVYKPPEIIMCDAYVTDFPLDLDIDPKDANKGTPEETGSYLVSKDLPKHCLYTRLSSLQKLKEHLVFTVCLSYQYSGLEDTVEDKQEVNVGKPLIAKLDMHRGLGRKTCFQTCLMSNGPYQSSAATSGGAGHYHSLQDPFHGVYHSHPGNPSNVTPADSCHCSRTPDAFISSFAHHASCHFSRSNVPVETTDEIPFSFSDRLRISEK
Broadly, the EC50 is the concentration at which the effect is half-maximal. As to `Cc1cc2ncc(NC(=O)Nc3cnc(-c4noc(CCCCCCN5CCN(c6ccc7c(c6)CN(C6CCC(=O)NC6=O)C7=O)CC5)n4)c(C)c3)c(C3CCCO3)n2n1` (centres unmarked) [Compound 73, 1-[6-[5-[6-[4-[2-(2,6-dioxo-3-piperidyl)-1-oxo-isoindolin-5-yl]piperazin-1-yl]hexyl]-1,2,4-oxadiazol-3-yl]-5-methyl-3-pyridyl]-3-(2-methyl-7-tetrahydrofuran-2-yl-pyrazolo[1,5-a]pyrimidin-6-yl)urea], the EC50 is at most 0.2 µM.

Take `O=C1CCC(N2Cc3cc(N4CCN(C(=O)CCCCCc5nc(-c6ncc(NC(=O)Nc7cnc8ccnn8c7C7CCCC7)cc6F)no5)CC4)ccc3C2=O)C(=O)N1` (centres unmarked) [Compound 74, 1-(7-cyclopentylpyrazolo[1,5-a]pyrimidin-6-yl)-3-[6-[5-[6-[4-[2-(2,6-dioxo-3-piperidyl)-1-oxo-isoindolin-5-yl]piperazin-1-yl]-6-oxo-hexyl]-1,2,4-oxadiazol-3-yl]-5-fluoro-3-pyridyl]urea]: the EC50 lay in the range of 0.2 to 0.5 µM.

With `O=C1CCC(N2Cc3cc(N4CCN(CCCCc5nc(-c6ncc(NC(=O)Nc7cnc8ccnn8c7C7CCCC7)cc6Cl)no5)CC4)ccc3C2=O)C(=O)N1` (centres unmarked) [Compound 75, 1-[5-chloro-6-[5-[4-[4-[2-(2,6-dioxo-3-piperidyl)-1-oxo-isoindolin-5-yl]piperazin-1-yl]butyl]-1,2,4-oxadiazol-3-yl]-3-pyridyl]-3-(7-cyclopentylpyrazolo[1,5-a]pyrimidin-6-yl)urea], the EC50 was at most 0.2 µM. Regarding `O=C1CCC(N2Cc3cc(N4CCN(C(=O)CCCc5nc(-c6ncc(NC(=O)Nc7cnc8ccnn8c7C7CCCC7)cc6F)no5)CC4)ccc3C2=O)C(=O)N1` (centres unmarked) [Compound 77, 1-(7-cyclopentylpyrazolo[1,5-a]pyrimidin-6-yl)-3-[6-[5-[4-[4-[2-(2,6-dioxo-3-piperidyl)-1-oxo-isoindolin-5-yl]piperazin-1-yl]-4-oxo-butyl]-1,2,4-oxadiazol-3-yl]-5-fluoro-3-pyridyl]urea], the EC50 was at most 0.2 µM. `O=C1CCC(N2Cc3cc(NC(=O)CCCc4nc(-c5ncc(NC(=O)Nc6cnc7ccnn7c6C6CCCC6)cc5Cl)no4)ccc3C2=O)C(=O)N1` (centres unmarked) [Compound 80, 4-[3-[3-chloro-5-[(7-cyclopentylpyrazolo[1,5-a]pyrimidin-6-yl)carbamoylamino]-2-pyridyl]-1,2,4-oxadiazol-5-yl]-N-[2-(2,6-dioxo-3-piperidyl)-1-oxo-isoindolin-5-yl]butanamide]: the EC50 is at most 0.2 µM. Take `O=C1CCC(N2Cc3cc(N4CCN(C(=O)CCCCc5nc(-c6ncc(NC(=O)Nc7cnc8ccnn8c7C7CCCC7)cc6F)no5)CC4)ccc3C2=O)C(=O)N1` (centres unmarked) [Compound 81, 1-(7-cyclopentylpyrazolo[1,5-a]pyrimidin-6-yl)-3-[6-[5-[5-[4-[2-(2,6-dioxo-3-piperidyl)-1-oxo-isoindolin-5-yl]piperazin-1-yl]-5-oxo-pentyl]-1,2,4-oxadiazol-3-yl]-5-fluoro-3-pyridyl]urea]: the EC50 lay within 0.2 to 0.5 µM. For `Cc1cc2ncc(NC(=O)Nc3cnc(-c4noc(CCCCCCN5CCN(c6ccc7c(c6)CN(C6CCC(=O)NC6=O)C7=O)CC5)n4)c(C)c3)c(C3CCCC3)n2n1` (centres unmarked) [Compound 83, 1-(7-cyclopentyl-2-methyl-pyrazolo[1,5-a]pyrimidin-6-yl)-3-[6-[5-[6-[4-[2-(2,6-dioxo-3-piperidyl)-1-oxo-isoindolin-5-yl]piperazin-1-yl]hexyl]-1,2,4-oxadiazol-3-yl]-5-methyl-3-pyridyl]urea], the EC50 was at most 0.2 µM. The same measure for `Cc1cc2ncc(NC(=O)Nc3cnc(-c4noc(CCCCCN5CCN(c6ccc7c(c6)CN(C6CCC(=O)NC6=O)C7=O)CC5)n4)c(C)c3)c(C3CCCO3)n2n1` (centres unmarked) [Compound 85, 1-[6-[5-[5-[4-[2-(2,6-dioxo-3-piperidyl)-1-oxo-isoindolin-5-yl]piperazin-1-yl]pentyl]-1,2,4-oxadiazol-3-yl]-5-methyl-3-pyridyl]-3-(2-methyl-7-tetrahydrofuran-2-yl-pyrazolo[1,5-a]pyrimidin-6-yl)urea]: at most 0.2 µM; for `Cc1cc(-c2noc(CCCCC(=O)N3CCN(c4ccc5c(c4)CN(C4CCC(=O)NC4=O)C5=O)CC3)n2)ncc1NC(=O)Nc1cnc2ccnn2c1C1CCCC1` (centres unmarked) [Compound 94, 1-(7-cyclopentylpyrazolo[1,5-a]pyrimidin-6-yl)-3-[6-[5-[5-[4-[2-(2,6-dioxo-3-piperidyl)-1-oxo-isoindolin-5-yl]piperazin-1-yl]-5-oxo-pentyl]-1,2,4-oxadiazol-3-yl]-4-methyl-3-pyridyl]urea]: above 5 µM. Consider `O=C1CCC(N2Cc3cc(N4CCN(CCCCCCc5nc(-c6ncc(NC(=O)Nc7cnc8ccnn8c7C7CCCC7)cc6F)no5)CC4)ccc3C2=O)C(=O)N1` (centres unmarked) [Compound 95, 1-(7-cyclopentylpyrazolo[1,5-a]pyrimidin-6-yl)-3-[6-[5-[6-[4-[2-(2,6-dioxo-3-piperidyl)-1-oxo-isoindolin-5-yl]piperazin-1-yl]hexyl]-1,2,4-oxadiazol-3-yl]-5-fluoro-3-pyridyl]urea], for which the EC50 is at most 0.2 µM. `O=C1CCC(N2Cc3cc(N4CCN(CCCCCc5nc(-c6ncc(NC(=O)Nc7cnc8ccnn8c7C7CCCC7)cc6F)no5)CC4)ccc3C2=O)C(=O)N1` (centres unmarked) [Compound 97, 1-(7-cyclopentylpyrazolo[1,5-a]pyrimidin-6-yl)-3-[6-[5-[5-[4-[2-(2,6-dioxo-3-piperidyl)-1-oxo-isoindolin-5-yl]piperazin-1-yl]pentyl]-1,2,4-oxadiazol-3-yl]-5-fluoro-3-pyridyl]urea]: the EC50 is at most 0.2 µM. For `O=C1CCC(N2Cc3cc(N4CCN(C(=O)CCCCc5nc(-c6ncc(NC(=O)Nc7cnc8ccnn8c7C7CCCCC7)cc6Cl)no5)CC4)ccc3C2=O)C(=O)N1` (centres unmarked) [Compound 98, 1-[5-chloro-6-[5-[5-[4-[2-(2,6-dioxo-3-piperidyl)-1-oxo-isoindolin-5-yl]piperazin-1-yl]-5-oxo-pentyl]-1,2,4-oxadiazol-3-yl]-3-pyridyl]-3-(7-cyclohexylpyrazolo[1,5-a]pyrimidin-6-yl)urea], the EC50 is at most 0.2 µM. The same measure for `O=C1CCC(N2Cc3cc(N4CCN(CCCCCc5nc(-c6ncc(NC(=O)Nc7cnc8ccnn8c7C7CCCCC7)cc6Cl)no5)CC4)ccc3C2=O)C(=O)N1` (centres unmarked) [Compound 99, 1-[5-chloro-6-[5-[5-[4-[2-(2,6-dioxo-3-piperidyl)-1-oxo-isoindolin-5-yl]piperazin-1-yl]pentyl]-1,2,4-oxadiazol-3-yl]-3-pyridyl]-3-(7-cyclohexylpyrazolo[1,5-a]pyrimidin-6-yl)urea]: at most 0.2 µM; for `Cc1cc(NC(=O)Nc2cnc3ccnn3c2C2CCCC2)cnc1-c1noc(CCCCC(=O)Nc2cccc(C3CCC(=O)NC3=O)c2)n1` (centres unmarked) [Compound 100, 5-[3-[5-[(7-cyclopentylpyrazolo[1,5-a]pyrimidin-6-yl)carbamoylamino]-3-methyl-2-pyridyl]-1,2,4-oxadiazol-5-yl]-N-[3-(2,6-dioxo-3-piperidyl)phenyl]pentanamide]: 0.2 to 0.5 µM; for `Cc1cc(NC(=O)Nc2cnc3ccnn3c2C2CCCC2)cnc1-c1noc(CCCCC(=O)Nc2ccc(C3CCC(=O)NC3=O)cc2)n1` (centres unmarked) [Compound 101, 5-[3-[5-[(7-cyclopentylpyrazolo[1,5-a]pyrimidin-6-yl)carbamoylamino]-3-methyl-2-pyridyl]-1,2,4-oxadiazol-5-yl]-N-[4-(2,6-dioxo-3-piperidyl)phenyl]pentanamide]: 0.2 to 0.5 µM. Turning to `Cc1cc(NC(=O)Nc2cnc3ccnn3c2C2CCCC2)cnc1-c1noc(CCCCCC(=O)N2CCN(c3ccc4c(c3)CN(C3CCC(=O)N(COC(=O)C(C)(C)C)C3=O)C4=O)CC2)n1` (centres unmarked) [Compound 102, [3-[5-[4-[6-[3-[5-[(7-cyclopentylpyrazolo[1,5-a]pyrimidin-6-yl)carbamoylamino]-3-methyl-2-pyridyl]-1,2,4-oxadiazol-5-yl]hexanoyl]piperazin-1-yl]-1-oxo-isoindolin-2-yl]-2,6-dioxo-1-piperidyl]methyl 2,2-dimethylpropanoate], the EC50 is at most 0.2 µM.

Consider `CCCCOP(=O)(OCCCC)OCN1C(=O)CCC(N2Cc3cc(N4CCN(C(=O)CCCCCc5nc(-c6ncc(NC(=O)Nc7cnc8ccnn8c7C7CCCC7)cc6Cl)no5)CC4)ccc3C2=O)C1=O` (centres unmarked) [Compound 103, dibutyl [3-[5-[4-[6-[3-[3-chloro-5-[(7-cyclopentylpyrazolo[1,5-a]pyrimidin-6-yl)carbamoylamino]-2-pyridyl]-1,2,4-oxadiazol-5-yl]hexanoyl]piperazin-1-yl]-1-oxo-isoindolin-2-yl]-2,6-dioxo-1-piperidyl]methyl phosphate], for which the EC50 was above 5 µM. With `O=C1CCC(N2Cc3cc(N4CCN(CCCCc5nc(-c6ncc(NC(=O)Nc7cnc8ccnn8c7C7CCCC7)cc6F)no5)CC4)ccc3C2=O)C(=O)N1` (centres unmarked) [Compound 105, 1-(7-cyclopentylpyrazolo[1,5-a]pyrimidin-6-yl)-3-[6-[5-[4-[4-[2-(2,6-dioxo-3-piperidyl)-1-oxo-isoindolin-5-yl]piperazin-1-yl]butyl]-1,2,4-oxadiazol-3-yl]-5-fluoro-3-pyridyl]urea], the EC50 was in the range of 0.2 to 0.5 µM. In the case of `Cc1cc(NC(=O)Nc2cnc3ccnn3c2C2CCC2)cnc1-c1noc(CCCCCC(=O)N2CCN(c3ccc4c(c3)CN(C3CCC(=O)NC3=O)C4=O)CC2)n1` (centres unmarked) [Compound 114, 1-(7-cyclobutylpyrazolo[1,5-a]pyrimidin-6-yl)-3-[6-[5-[6-[4-[2-(2,6-dioxo-3-piperidyl)-1-oxo-isoindolin-5-yl]piperazin-1-yl]-6-oxo-hexyl]-1,2,4-oxadiazol-3-yl]-5-methyl-3-pyridyl]urea], the EC50 was at most 0.2 µM.

On to `Cc1cc(NC(=O)Nc2cnc3ccnn3c2C2CCC2)cnc1-c1noc(CCCCCCN2CCN(c3ccc4c(c3)CN(C3CCC(=O)NC3=O)C4=O)CC2)n1` (centres unmarked) [Compound 115, 1-(7-cyclobutylpyrazolo[1,5-a]pyrimidin-6-yl)-3-[6-[5-[6-[4-[2-(2,6-dioxo-3-piperidyl)-1-oxo-isoindolin-5-yl]piperazin-1-yl]hexyl]-1,2,4-oxadiazol-3-yl]-5-methyl-3-pyridyl]urea], for which the EC50 was at most 0.2 µM.

(Values after US20250163066A1, “PROTACs of MALT1” (TEGID THERAPEUTICS, INC., priority 2022, published 2025).)
